Series [1] addresses T1, ABCB1 (Homo sapiens, UniProt P08183). Nature of the series: Cell and fluorescent imaging-based ABCB1-mediated efflux assay (IncuCyte FLR) in KB-V1 cells.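 As to all read-outs here: ABCB1-overexpressing KB-V1 cells, live-cell fluorescence imaging of retained calcein (from calcein AM) or MitoTracker Green FM, no preincubation with inhibitor, XR9576 as positive control, calcein AM alone as background.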 The following applies: for inhibition at 10 µM: human.
Procedure: (§2) The cell- and fluorescent imaging-based ABCB1-mediated efflux assays were carried out using ABCB1-overexpressing KB-V1 cells and calcein AM. Calcein AM was diluted in the culture media and then added directly to the cells grown in 96- or 384-well plates at the indicated final concentrations. Additionally, MitoTracker® Green FM was used as a fluorescent substrate in the ABCB1-mediated efflux assay. […] There was no incubation time after addition of the ABCB1 inhibitors. The only time delay between the addition of the inhibitors/drugs and the addition of calcein AM was the sample handling time. […] All wells contained 0.1% DMSO; except when the drugs were serial-diluted, in which the wells with the highest drug concentration contained 0.1% DMSO and the rest of wells contained diluted DMSO from the same working stock solution. The cell culture vessels were placed in a fluorescent and phase-contrast live cell imaging system, the IncuCyte^TMFLR (Essen BioScience, Ann Arbor, MI), in a 37°C incubator supplemented with 5% CO2. Both fluorescent and phase-contrast images (750×950 µm) were taken by the IncuCyte^TMFLR at the indicated time intervals. The approximate number of cells scanned was 200–600 cells per image. Auto-fluorescence of the compounds was determined by treating the cells with the drug candidates in the absence of calcein AM and fluorescence was measured using the IncuCyte^TMFLR and a fluorescent plate reader (Infinite 200 PRO, Tecan System, Inc., San Jose, CA).
(§3) The IncuCyte^TMFLR was programmed to take 4 images per well of a 96-well plate or a single image per well of a 384-well plate. It takes 27 minutes to scan an entire 96-well plate at 4 images per well and 27 minutes to scan an entire 384-well plate at one image per well, respectively. Because intracellular accumulation of calcein is time sensitive, only 3 to 6 columns of a 96-well plate were used for a single experiment. Three positive control (XR9576) wells and three background (calcein AM only) wells were included in each 96-well plate or in each column in the 384-well plates. All experiments were repeated at least twice unless otherwise indicated.
(§4) The IncuCyte^TMFLR software provides the mean of the total fluorescence intensity (mean fluorescence intensity), obtained by averaging fluorescent intensities from all the pixels in the image(s) from each well. The automatically generated mean fluorescence intensity is not corrected for the background fluorescence, which can often lead to distorted outputs. Additional software, the Object Counting v2.0 Analysis software provided by the IncuCyte^TMFLR, can assist further quantification and analysis of the fluorescent images. Using this software, a segmentation mask was generated to separate fluorescent (foreground) and non-fluorescent (background) objects so that the sum of the fluorescent intensity of the positive cells can be calculated without the interference from the background fluorescence. The Object Summed Intensity per mm^2 from the metrix menu was chosen to indicate the background corrected fluorescent intensity of each well and designated as the object intensity.
(§5) The relative inhibition of each compound on calcein AM efflux was calculated by the following equation: [drawing 1] where X represents the mean fluorescence intensities or the object intensities, and T denotes the test compound. The final results were normalized to either the maximum values of the test compounds in the dose-response experiments or to the values from XR9576 (0.2 µM) treated cells.
The target of series [2] is T1, ABCB1.
Procedure: as §2, §3, §4, §5
The target of series [3] is T1, ABCB1. Nature of the series: in vitro.
Procedure: as §2, §3, §4, §5
Series [4] in a line: Cell viability assay (CCK-8). The following applies: human, HCT-15-Pgp cells.
Procedure: HCT-15-Pgp cells were plated and cultured in 96-well plates for 1 or 2 days, until they reached 50–80% confluency. […] Cell viability was examined using the Cell Counting Kit-8 (CCK-8, Dojindo Molecular Technologies, Inc., Rockville, MD); which functions similar to MTT assays by reduction of the tetrazolium salt, WST-8, to yield a yellow-colored and water-soluble formazan dye (measured at 450 nm).
The test system of a further series is KB-V1 cells. Nature of the series: Cytotoxicity to KB-V1 cells seen in the imaging assay. Format: cell-based, human. The text has this: (§1) Compounds that auto-fluoresced were excluded from further analysis.
The target of series [5] is T1, ABCB1. Nature of the series: Flow cytometry-based ABCB1-mediated efflux assay in KB-V1 cells. To be noted: compound 5 µM, calcein AM 1 µM.
Procedure: (§6) An ABCB1-mediated calcein AM efflux assay was also performed with KB-V1 cells and evaluated by flow cytometry as described previously [32]. KB-V1 cells were detached by brief trypsin treatment, followed by addition of medium containing 10% serum to neutralize the trypsin. The detached cells were collected by centrifugation, aliquoted at 500,000 cells/tube, and incubated with the test compounds at the indicated concentrations and calcein AM (1 µM) or MitoTracker® Green FM for 10 minutes in a 37°C water bath. After incubation, the cells were collected by centrifugation at 800xg for 5 minutes and resuspended in PBS/0.1% BSA. The fluorescent substrates retained in KB-V1 cells were detected by flow cytometry (BD FACSCalibur, BD Biosciences, Franklin Lakes, NJ). The data were analyzed with FlowJo 7.2.2 (Tree Star, Inc., Ashland, OR) and presented as histograms. […] Total number of cells counted per sample was 10,000.
Series [6] has as its target T1, ABCB1. Description: Photolabeling of ABCB1 with [125I]IAAP. Format: binding. On the set-up: made in house; host or cells: Hifive insect cells (crude / plasma membranes). The following applies: compound 20 µM, membranes from Hifive cells overexpressing human ABCB1, autoradiograph.
Procedure: The interaction of selected compounds with ABCB1 was assessed by an in vitro photolabeling assay as previously described [32].
For a further series, the system named is KB-3-1 cells. Nature of the series: Cell imaging-based calcein accumulation in parental KB-3-1 cells. On the set-up: species or system human. To be noted: 1 µM calcein AM, 1 hour, mean fluorescence intensities. The method, then: ABCB1-overexpressing KB-V1 cells, previously selected and maintained with vinblastine (1 µg/ml), and the parental line, KB-3-1 cells, were cultured in DMEM supplemented with 10% FBS [26], [27], [28]. Vinblastine was removed from the KB-V1 cell culture medium 2 to 3 days before each experiment. For the efflux assay, the cells were plated at either 20,000 cells per well in 96-well (100 µl/well) or 2,500 cells per well in 384-well (40 µl/well) flat, clear bottom, white or black-walled polystyrene tissue culture plates (uncoated) (Corning Life Sciences, Tewksbury, MA) and incubated at 37°C. After the cell confluence reached 30–80% (1 to 3 days in culture), the cell and fluorescent imaging-based efflux assays were performed. The ABCB1 overexpressing HCT-15-Pgp cells, used for the cytotoxicity assays, were also cultured in DMEM supplemented with 10% FBS [29]. All cell lines were gifts from Dr. Michael M. Gottesman (NCI, Bethesda, MD).
as §1

Series [7] addresses T1, ABCB1. This is another data set of the same source.
Procedure: as §6
Setting [8] is: ABCB1-overexpressing KB-V1 cells, probe calcein AM (1 µM).

The inhibition is the share of the control response that was lost under treatment. What is called IC50 is the midpoint of a concentration-inhibition curve. Higher therefore signals a need for much substance.

SMILES strings stand for the structures. Where a name gives a salt, the structure may show the parent alone. Read-outs that look alike come from different tables or passages of the source.

T1 sequence (P08183 whole entry): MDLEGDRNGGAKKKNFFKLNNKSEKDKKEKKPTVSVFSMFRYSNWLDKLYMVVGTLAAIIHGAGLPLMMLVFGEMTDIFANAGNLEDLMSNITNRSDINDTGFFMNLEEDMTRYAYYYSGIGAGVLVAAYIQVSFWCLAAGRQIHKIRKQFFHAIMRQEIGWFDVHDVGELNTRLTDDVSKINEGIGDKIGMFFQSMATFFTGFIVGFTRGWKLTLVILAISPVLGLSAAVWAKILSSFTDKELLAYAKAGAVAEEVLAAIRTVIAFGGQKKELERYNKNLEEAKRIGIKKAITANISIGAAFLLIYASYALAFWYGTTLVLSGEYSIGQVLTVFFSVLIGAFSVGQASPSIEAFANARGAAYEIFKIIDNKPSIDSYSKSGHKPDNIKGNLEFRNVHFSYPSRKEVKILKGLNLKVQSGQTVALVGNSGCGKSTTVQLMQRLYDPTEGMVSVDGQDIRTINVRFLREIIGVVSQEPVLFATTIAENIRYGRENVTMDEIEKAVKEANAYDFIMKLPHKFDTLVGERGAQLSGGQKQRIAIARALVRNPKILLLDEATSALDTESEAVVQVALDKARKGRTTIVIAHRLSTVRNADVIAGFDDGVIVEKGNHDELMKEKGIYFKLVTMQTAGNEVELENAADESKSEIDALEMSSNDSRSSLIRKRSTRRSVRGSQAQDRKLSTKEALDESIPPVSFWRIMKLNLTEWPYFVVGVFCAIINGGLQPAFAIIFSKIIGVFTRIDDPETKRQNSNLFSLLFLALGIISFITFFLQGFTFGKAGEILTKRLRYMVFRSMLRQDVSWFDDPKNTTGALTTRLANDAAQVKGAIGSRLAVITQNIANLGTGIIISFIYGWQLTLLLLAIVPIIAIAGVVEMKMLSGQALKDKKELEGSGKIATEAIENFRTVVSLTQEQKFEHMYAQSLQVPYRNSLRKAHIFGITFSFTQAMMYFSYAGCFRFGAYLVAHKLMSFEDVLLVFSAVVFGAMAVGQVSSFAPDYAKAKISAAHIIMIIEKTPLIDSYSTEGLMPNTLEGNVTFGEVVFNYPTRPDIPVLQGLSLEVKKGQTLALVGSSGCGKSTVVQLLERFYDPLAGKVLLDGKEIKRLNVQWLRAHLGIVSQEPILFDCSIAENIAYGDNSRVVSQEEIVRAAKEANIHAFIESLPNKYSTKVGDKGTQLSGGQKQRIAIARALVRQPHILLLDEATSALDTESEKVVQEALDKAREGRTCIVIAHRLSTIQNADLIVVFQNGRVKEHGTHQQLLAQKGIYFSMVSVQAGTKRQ

In the case of `COc1cc2nccc(Oc3ccc(NC(=O)Nc4cc(C)on4)c(Cl)c3)c2cc1OC` [AV-951 (Tivozanib), Tivozanib], the inhibition at 10 µM on ABCB1 [1] (setting [8]) was at least 50%.

Regarding `CN1CCN(CCOc2cc(OC3CCOCC3)c3c(Nc4c(Cl)ccc5c4OCO5)ncnc3c2)CC1` [AZD0530 (Saracatinib), Saracatinib], the inhibition at 10 µM on ABCB1 [1] (setting [8]) is at least 50%.

`Cn1c(=O)n(-c2ccc(C(C)(C)C#N)cc2)c2c3cc(-c4cnc5ccccc5c4)ccc3ncc21` [BEZ235]: the “Inhibition of ABCB1-mediated calcein AM efflux in dose-response experiment” value on ABCB1 [2] is reported as “dose-dependent inhibition”. Also, the inhibition at 10 µM on ABCB1 [3] is at least 50%. Also, the IC50 against ABCB1 [1] is 20.1 µM.

Consider `CC[C@@H]1C(=O)N(C)c2cnc(Nc3ccc(C(=O)N[C@H]4CC[C@H](N5CCN(CC6CC6)CC5)CC4)cc3OC)nc2N1C(C)C` [BI6727], for which the inhibition at 10 µM on ABCB1 [1] (setting [8]) is at least 50%.

In the case of `CC[C@@H]1C(=O)N(C)c2cnc(Nc3ccc(C(=O)NC4CCN(C)CC4)cc3OC)nc2N1C1CCCC1` [BI 2536], half-maximal inhibition in series [4] (IC50 at 48 h) was put at 1.28 µM.

In turn, `CN(C)C/C=C/C(=O)Nc1cc2c(Nc3ccc(F)c(Cl)c3)ncnc2cc1O[C@H]1CCOC1` [BIBW2992 (Tovok)] yielded an inhibition at 10 µM against ABCB1 [1] of at least 50%.

Regarding `COc1cc(Nc2c(C#N)cnc3cc(OCCCN4CCN(C)CC4)c(OC)cc23)c(Cl)cc1Cl` [Bosutinib (SKI-606), Bosutinib], the inhibition at 10 µM against ABCB1 [3] is at least 50%.

Consider `C=CC(=O)Nc1cc2c(Nc3ccc(F)c(Cl)c3)ncnc2cc1OCCCN1CCOCC1` [CI-1033 (Canertinib), Canertinib], for which, on ABCB1 [3], the inhibition at 10 µM is at least 50%.

For `COc1cc2c(Oc3ccc4[nH]c(C)cc4c3F)ncnc2cc1OCCCN1CCCC1` [Cediranib (AZD2171), Cediranib], the inhibition at 10 µM against ABCB1 [3] is at least 50%.

Consider `CC1(COc2ccc3c(c2)ncn3-c2ccc3cccc(N4CCC(N)CC4)c3n2)COC1` [Crenolanib (CP-868596), Crenolanib], for which, at ABCB1 [1] (setting [8]), the inhibition at 10 µM was at least 50%.

`C[S+](C)[O-]` [DMSO, dimethyl sulfoxide]: in the series on KB-V1 cells (1 µM calcein AM (data not shown)), the “Concentration toxic to KB-V1 cells” value is on record as ≥ 0.5 % (v/v).

`CO[C@H]1C[C@@H]2CC[C@@H](C)[C@@](O)(O2)C(=O)C(=O)N2CCCC[C@H]2C(=O)O[C@H]([C@H](C)C[C@@H]2CC[C@@H](OP(C)(C)=O)[C@H](OC)C2)CC(=O)[C@H](C)/C=C(\C)[C@@H](O)[C@@H](OC)C(=O)[C@H](C)C[C@H](C)/C=C/C=C/C=C/1C` [Deforolimus (MK-8669), Deforolimus]: at ABCB1 [3], the inhibition at 10 µM was at least 50%.

As for `CO[C@H]1C[C@@H]2CC[C@@H](C)[C@@](O)(O2)C(=O)C(=O)N2CCCC[C@H]2C(=O)O[C@H]([C@H](C)C[C@@H]2CC[C@@H](OCCO)[C@H](OC)C2)CC(=O)[C@H](C)/C=C(\C)[C@@H](O)[C@@H](OC)C(=O)[C@H](C)C[C@H](C)/C=C/C=C/C=C/1C` [Everolimus (RAD001), Everolimus], the inhibition at 10 µM on ABCB1 [1] (setting [8]) is at least 50%.

As to `COc1ccc2c3c([nH]c2c1)[C@H](C=C(C)C)N1C(=O)[C@@H]2CCCN2C(=O)[C@@H]1C3` [FTC, fumitremorgin C], the “Inhibition of ABCB1-mediated calcein AM efflux, flow cytometry” value on ABCB1 [5] was “neither ABCG2 specific inhibitor FTC nor ABCC1 specific inhibitor MK-571 interfered”.

Consider `C[C@@H](Oc1cc(-n2cnc3ccc(CN4CCN(C)CC4)cc32)sc1C(N)=O)c1ccccc1C(F)(F)F` [GSK461364], for which the inhibition at 10 µM at ABCB1 [1] (setting [8]) is at least 50%.

With `COc1cc2ncnc(Nc3ccc(F)c(Cl)c3)c2cc1OCCCN1CCOCC1` [Gefitinib (Iressa), Gefitinib], the inhibition at 10 µM against ABCB1 [3] is at least 50%.

For `O=C(c1ccc(Nc2nccc(-c3cc4ccccc4s3)n2)cc1)N1CCC(N2CCCC2)CC1` [IKK 16], at ABCB1 [2], the “IC50, inhibition of ABCB1-mediated calcein AM efflux” value is given as “cannot be calculated from the data” and the “Inhibition of ABCB1-mediated calcein AM efflux in dose-response experiment” value is “dose-dependent inhibition”. For the same compound, the “Inhibition of ABCB1-mediated calcein AM efflux, flow cytometry” value on ABCB1 [5] was “inhibited”. In addition, the “Competition with [125I]IAAP for direct binding to ABCB1” value at ABCB1 [6] is on record as “successfully competed”.

On ABCB1 [3], `Cc1ccc(NC(=O)c2ccc(CN3CCN(C)CC3)cc2)cc1Nc1nccc(-c2cccnc2)n1` [Imatinib (STI571), Imatinib] yielded an inhibition at 10 µM of at least 50%.

At ABCB1 [3], `Cc1cnc(NC(=O)Nc2cc(Br)c(C)cc2OC[C@@H]2CNCCO2)cn1` [LY2603618] returned an inhibition at 10 µM of at least 50%.

With `CS(=O)(=O)CCNCc1ccc(-c2ccc3ncnc(Nc4ccc(OCc5cccc(F)c5)c(Cl)c4)c3c2)o1` [Lapatinib Ditosylate], on ABCB1 [1] (setting [8]), the inhibition at 10 µM was at least 50%.

Regarding `CN(C)C(=O)CCSC(SCCC(=O)O)c1cccc(/C=C/c2ccc3ccc(Cl)cc3n2)c1` (stereo not shown) [MK-571], the “Inhibition of ABCB1-mediated calcein AM efflux, flow cytometry” value on ABCB1 [5] is on record as “neither ABCG2 specific inhibitor FTC nor ABCC1 specific inhibitor MK-571 interfered”.

With `S=C(NCc1ccc2c(c1)OCO2)N1CCN(c2ncnc3c2oc2ccccc23)CC1` [MP-470 (Amuvatinib), Amuvatinib], the inhibition at 10 µM on ABCB1 [1] (setting [8]) is at least 50%.

Consider `Cc1ccc(NC(=O)c2ccc(CN3CCN(C)CC3)cc2)cc1Nc1nc(-c2cccnc2)cs1` [Masitinib (AB1010), Masitinib], for which, on ABCB1 [1] (setting [8]), the inhibition at 10 µM was at least 50%.

Compound `Cc1cn(-c2cc(NC(=O)c3ccc(C)c(Nc4nccc(-c5cccnc5)n4)c3)cc(C(F)(F)F)c2)cn1` [Nilotinib] came in with an inhibition at 10 µM against ABCB1 [3] of at least 50%.

For the compound `CCOc1cc2ncc(C#N)c(Nc3ccc(F)c(Cl)c3)c2cc1NC(=O)/C=C/CN(C)C` [Pelitinib], at ABCB1 [1] (setting [8]), the inhibition at 10 µM was at least 50%.

At ABCB1 [3], `CO[C@H]1C[C@@H]2CC[C@@H](C)[C@@](O)(O2)C(=O)C(=O)N2CCCC[C@H]2C(=O)O[C@H]([C@H](C)C[C@@H]2CC[C@@H](O)[C@H](OC)C2)CC(=O)[C@H](C)/C=C(\C)[C@@H](O)[C@@H](OC)C(=O)[C@H](C)C[C@H](C)/C=C/C=C/C=C/1C` [Rapamycin (Sirolimus), Rapamycin] came in with an inhibition at 10 µM of at least 50%.

On ABCB1 [3], `O=C(Nc1cccc(Cl)c1)Nc1ncc(CCNc2ncnc3ccsc23)s1` [SNS-314 Mesylate] gave an inhibition at 10 µM of at least 50%.

For the compound `CO[C@H]1C[C@@H]2CC[C@@H](C)[C@@](O)(O2)C(=O)C(=O)N2CCCC[C@H]2C(=O)O[C@H]([C@H](C)C[C@@H]2CC[C@@H](OC(=O)C(C)(CO)CO)[C@H](OC)C2)CC(=O)[C@H](C)/C=C(\C)[C@@H](O)[C@@H](OC)C(=O)[C@H](C)C[C@H](C)/C=C/C=C/C=C/1C` [Temsirolimus], at ABCB1 [3], the inhibition at 10 µM is at least 50%.

In turn, `C=CC(=O)Nc1cccc(Oc2nc(Nc3ccc(N4CCN(C)CC4)cc3OC)ncc2Cl)c1` [WZ4002] came in with an inhibition at 10 µM against ABCB1 [3] of at least 50%.

With `COc1cc2c(cc1OC)CN(CCc1ccc(NC(=O)c3cc(OC)c(OC)cc3NC(=O)c3cnc4ccccc4c3)cc1)CC2` [XR9576, tariquidar], the “Effect on fluorescent calcein accumulation” value in the series on KB-3-1 cells is “independent”. The “Concentration cytotoxic to cells” value in the series with KB-V1 cells (imaging assay (not shown)) was above 1000 nM. Moreover, the “Inhibition of ABCB1-mediated calcein AM efflux in dose-response experiment” value at ABCB1 [2] is recorded as “dose-dependent inhibition”. For the same compound, the “Inhibition of MitoTracker Green FM efflux, cell imaging” value at ABCB1 [2] (human) is “inhibition on ABCB1-mediated efflux was detected”. Also, on ABCB1 [7], the “Inhibition of MitoTracker Green FM efflux, flow cytometry” value is recorded as “blocked”. In addition, at ABCB1 [1], the IC50 is 0.00728 µM.

Consider `CCC/C=C/C=C/C(=O)O[C@H]1/C(=C/C(=O)OC)C[C@H]2C[C@H]([C@@H](C)O)OC(=O)C[C@H](O)C[C@@H]3C[C@H](OC(C)=O)C(C)(C)[C@](O)(C[C@@H]4C/C(=C/C(=O)OC)C[C@H](/C=C/C(C)(C)[C@]1(O)O2)O4)O3` [bryostatin-1, Bryostatin-1], for which the “Inhibition of ABCB1-mediated calcein AM efflux, flow cytometry” value at ABCB1 [5] was “failed to inhibit”. The “Inhibition of ABCB1-mediated calcein AM efflux in dose-response experiment” value on ABCB1 [1] (KB-V1 cells, 96-well plates, 1 µM calcein AM) is reported as “failed to inhibit”.

Consider `Cc1ccc(C(=O)N(CCCN)[C@@H](c2nc3cc(Cl)ccc3c(=O)n2Cc2ccccc2)C(C)C)cc1` [ispinesib], for which, at ABCB1 [2], the “Inhibition of ABCB1-mediated calcein AM efflux in dose-response experiment” value is recorded as “dose-dependent inhibition”. On ABCB1 [7], the “Inhibition of ABCB1-mediated calcein AM efflux, flow cytometry” value was “inhibited”. On ABCB1 [6], the “Competition with [125I]IAAP for direct binding to ABCB1” value is “marginal effect”. The compound also returned an IC50 on ABCB1 [1] of 5.04 µM.

The record behind these values is PMC3622673, “Screening Compounds with a Novel High-Throughput ABCB1-Mediated Efflux Assay Identifies Drugs with Known Therapeutic Targets at Risk for Multidrug Resistance Interference” (PLoS ONE, 2013).
